Data published in patent US6046219A, “Method for the treatment of conditions mediated by collagen formation together with cell proliferation by application of inhibitors of protein hydroxylation” (Cornell Research Foundation, Inc., priority 1997, dated 2000).
Entries after “also recorded” stand apart in the source; their conditions may differ.

Assays:
[1] = test system: deoxyhypusyl hydroxylase activity in human smooth muscle cells; assay: Cellular deoxyhypusyl hydroxylase in human smooth muscle cells; format: cell-based; conditions: FIG. 3b
Description: In FIG. 3a, the effect on the human enzyme was determined by measuring in proliferating cultured B-lymphocytes the covalent incorporation of tritiated spermidine-derived label into cellular protein, after standard hydrolysis, chromatographic separation of amino acids, and expression of the results relative to uninhibited controls. In FIG. 3b, a standard chromatographic elution profile is shown as obtained from cultured human smooth muscle cells ("SMC"), grown out of coronary atherosclerotic lesions and metabolically labeled in the absence and presence of L-mimosine. […]
The cellular conversion of the precursor deoxyhypusine to the hydroxylated hypusine in cells was examined, after preincubation with the inhibitor for 60 minutes, by labeling the human cells with ^3 H-spermidine (5 μCi/ml) in 25 cm^2 flasks (1×10^6 cells/flask) for 24 hours prior to cell lysis, precipitation with 10% TCA containing 1 mM each of putrescine, spermidine, and spermine, and hydrolysis in 6 N HCl at 110° C. for 16 hours. The hydrolysate was analyzed for labeled amino acids on an amino acid analyzer by published methods (Park et al., J. Biol. Chem., 257:7217-7222 (1982), which is hereby incorporated by reference). The retention of purified hypusine and deoxyhypusine was determined from standards.

[2] = target: T1, prolyl 4-hydroxylase in human coronary smooth muscle cells (SMC) (Homo sapiens, UniProt P13674); assay: Assay of cellular human prolyl 4-hydroxylase in lesion-derived SMC (3H-proline labeling); format: cell-based; conditions: upon removal of the inhibitor
T1 construct: 3H-proline to 3H-hydroxyproline conversion
T1 sequence (P13674 18-534): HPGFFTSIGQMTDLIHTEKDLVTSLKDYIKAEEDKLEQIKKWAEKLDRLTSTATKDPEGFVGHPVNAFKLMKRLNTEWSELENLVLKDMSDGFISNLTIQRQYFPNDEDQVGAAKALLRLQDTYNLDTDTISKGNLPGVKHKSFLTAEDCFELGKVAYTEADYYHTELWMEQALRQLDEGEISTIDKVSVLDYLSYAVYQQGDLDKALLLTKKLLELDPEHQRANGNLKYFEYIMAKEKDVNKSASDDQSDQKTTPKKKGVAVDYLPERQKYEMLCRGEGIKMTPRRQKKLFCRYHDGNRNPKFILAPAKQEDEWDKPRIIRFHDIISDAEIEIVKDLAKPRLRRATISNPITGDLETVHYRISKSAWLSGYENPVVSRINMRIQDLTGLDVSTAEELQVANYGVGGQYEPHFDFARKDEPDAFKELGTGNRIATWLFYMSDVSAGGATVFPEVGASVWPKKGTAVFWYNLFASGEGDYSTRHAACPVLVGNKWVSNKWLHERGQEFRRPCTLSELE
T1 sequence (P07237 18-508 partner): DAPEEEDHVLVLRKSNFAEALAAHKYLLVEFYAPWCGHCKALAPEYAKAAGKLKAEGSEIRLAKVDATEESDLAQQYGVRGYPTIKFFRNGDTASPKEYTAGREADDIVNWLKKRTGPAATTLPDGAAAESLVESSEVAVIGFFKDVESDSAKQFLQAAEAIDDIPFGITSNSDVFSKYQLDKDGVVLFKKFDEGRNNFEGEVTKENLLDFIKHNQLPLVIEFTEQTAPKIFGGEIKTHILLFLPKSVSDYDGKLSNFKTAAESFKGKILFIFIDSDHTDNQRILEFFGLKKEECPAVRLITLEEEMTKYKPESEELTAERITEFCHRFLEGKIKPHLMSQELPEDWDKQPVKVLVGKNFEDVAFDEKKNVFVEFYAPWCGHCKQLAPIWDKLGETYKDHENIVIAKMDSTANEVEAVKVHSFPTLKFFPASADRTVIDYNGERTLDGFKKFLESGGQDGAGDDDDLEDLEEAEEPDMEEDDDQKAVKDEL
Description: Those SMC, immunocytochemically identified by reactivity to contractile α-actinas shown in FIGS. 4b and 4c were pretreated with inhibitor for 30 minutes prior to routine metabolic labeling with tritiated proline ("^3 H-Pro") for 24 hours, followed by standard hydrolysis and separation of amino acids from both supernatant and cells. The degree of inhibition of scar collagen formation was determined by measuring formation of tritiated hydroxyproline ("^3 H-Hyp").
Human coronary artery smooth muscle cells ("SMC") were isolated from specimens collected immediately after directional rotary atherectomy (Simpson AtheroCath, DVI, Inc., Redwood City, Calif.). […] To verify the SMC phenotype of the cultures, cells were plated onto LabTek 8-chamber slides and stained by indirect immunofluorescence for the SMC marker contractile α-actin, using a mouse monoclonal antibody specific for the contractile smooth muscle α-actin (clone No. IA4; Sigma) which was detected with FITC- or peroxidase-labeled […] (Sigma). […] Results were photodocumented with a Nikon Labophot 2 fluorescence microscope. […]

[3] = test system: plasminogen activator inhibitor-1 (PAI-1); assay: Plasminogen activator inhibitor assay, SMC supernatants; format: cell-based; conditions: human SMC, FIG. 6
Description: Type III collagen biosynthesis (FIG. 6a) was assessed by a commercial radioimmunoassay using a monoclonal antibody to the N-terminal propeptide of type III procollagen. Plasminogen activator inhibitor-1 ("PAI-1") activity was measured by a standard enzymatic method. Type I collagen biosynthesis (FIG. 6b) was assessed by routine Western blot using a monoclonal antibody to the C-terminal propeptide of type I procollagen.
Supernatants of human SMC incubated with the hydroxypyridone L-mimosine under serum-free conditions (to avoid plasma-derived inhibitors) were tested for their ability to inhibit a standard amount of urokinase-type plasminogen activator (uPA) in the presence of plasminogen and the fluorometric peptide plasmin substrate d-Val-Leu-Lys-aminomethylcoumarin (Enzyme Systems, Livermore, Calif.). Inhibition of plasmin generation was compared to a standard curve of human PAI-1 (American Diagnostica, Greenwich, Conn.) to yield PAI-1 activity.

cell proliferation = conditions: Hanauske-Abel et al. 1994; cited from earlier work

In the case of `N[C@@H](Cn1ccc(=O)c(O)c1)C(=O)O` [L-Mimosine], the “inhibition of deoxyhypusyl hydroxylase activity” value [1] is reported as “inhibit deoxyhypusyl hydroxylase activity; also recorded: label is shifted to the unhydroxylated precursor of Hps”, the “reversibility of suppression of cellular prolyl hydroxylase activity” value [2] is reported as “rapidly reversible” and the “secretion of plasminogen activator inhibitor-1 (PAI-1)” value [3] is reported as “not affected; also recorded: not on release of plasminogen activator inhibitor-1”. The “inhibition of the multiplication of certain cells” value (cell proliferation) was “reversible inhibitor”.
